Data as given in patent US20080194482A1, “Selective Apac2 Receptor Peptide Agonists” (priority 2005, published 2008).
Square brackets hold non-standard residues; d marks the D form. Peptide text beside a SMILES is read from it. * marks the point of attachment. Orn = NCCC[C@H](N)C(=O)O; Hexanoyl = CCCCCC(=O)*; Aib = CC(C)(N)C(=O)O

What was measured:
human PAC1 = target: T1, human PAC1 (Homo sapiens, UniProt P41586); assay: Filter binding assay, 125I-labeled PACAP-27 tracer, PAC1 membranes; conditions: read-out: Human PAC1 Receptor Binding (IC50; nM)
T1 construct: expressed in transfected cells
T1 sequence (P41586 21-468): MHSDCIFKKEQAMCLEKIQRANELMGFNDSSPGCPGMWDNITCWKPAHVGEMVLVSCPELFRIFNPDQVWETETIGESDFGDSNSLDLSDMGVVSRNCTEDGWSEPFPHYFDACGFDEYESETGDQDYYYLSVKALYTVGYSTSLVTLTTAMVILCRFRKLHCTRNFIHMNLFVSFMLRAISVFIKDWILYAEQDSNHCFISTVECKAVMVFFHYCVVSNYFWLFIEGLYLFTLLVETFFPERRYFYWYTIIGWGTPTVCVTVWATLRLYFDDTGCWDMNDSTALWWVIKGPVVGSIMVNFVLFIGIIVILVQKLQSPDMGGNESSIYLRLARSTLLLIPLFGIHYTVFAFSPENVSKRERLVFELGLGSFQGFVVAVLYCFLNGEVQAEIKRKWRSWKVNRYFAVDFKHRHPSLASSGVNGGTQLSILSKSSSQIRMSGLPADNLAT

rat VPAC2 receptor = target: T2, rat VPAC2 receptor (Rattus norvegicus, UniProt P35000); assay: DiscoveRx cAMP assay, in vitro potency at rat VPAC2 receptor; type: cell-based; conditions: CHO-PO cells transiently transfected with rat VPAC2; cAMP generation; mean of two independent runs
T2 construct: expressed in transfected cells; host or cells: CHO-PO (transient, Lipofectamine)
T2 sequence (P35000 23-437): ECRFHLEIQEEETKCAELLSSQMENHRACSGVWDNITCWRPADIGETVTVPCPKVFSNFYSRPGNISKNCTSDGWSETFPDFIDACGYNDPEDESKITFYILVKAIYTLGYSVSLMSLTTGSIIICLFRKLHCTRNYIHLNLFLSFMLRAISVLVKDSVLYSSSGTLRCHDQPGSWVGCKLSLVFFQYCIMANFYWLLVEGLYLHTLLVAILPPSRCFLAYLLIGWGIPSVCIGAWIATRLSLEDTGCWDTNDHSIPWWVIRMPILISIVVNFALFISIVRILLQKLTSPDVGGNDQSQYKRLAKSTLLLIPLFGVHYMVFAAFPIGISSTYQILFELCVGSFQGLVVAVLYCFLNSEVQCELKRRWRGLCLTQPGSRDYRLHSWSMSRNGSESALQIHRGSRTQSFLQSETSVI
Method: (§1) DiscoveRx: CHO-PO cells are transiently transfected with rat VPAC1 or VPAC2 receptor DNA using commercially available transfection reagents (Lipofectamine from Invitrogen). The cells are seeded at a density of 10,000/well in a 96-well plate and are allowed to grow for 3 days in […] culture medium. At day 3, the assay is performed.
(§2) On the day of the experiment, the medium is removed. Also, the cells are washed twice. The cells are incubated in assay buffer plus IBMX for 15 minutes at room temperature. Afterwards, the stimuli are added and are dissolved in assay buffer. The stimuli are present for 30 minutes. Then, the assay buffer is gently removed. The cell lysis reagent of the DiscoveRx cAMP kit is added. Thereafter, the standard protocol for developing the cAMP signal as described by the manufacturer is used (DiscoveRx Inc., USA). EC50 values for cAMP generation are calculated from the raw signal or are based on absolute cAMP levels as determined by a standard curve performed on each plate.
(§3) Results for each agonist are the mean of two independent runs. Rat VPAC1 and VPAC2 results are only generated using the DiscoveRx assay.

human VPAC2 [1] = target: T3, human VPAC2 (Homo sapiens, UniProt P41587); assay: Alpha screen cAMP assay, in vitro potency at human VPAC2 receptor; type: cell-based; conditions: cAMP generation; single result from two analyses in a single run, some values average of more than one experiment
T3 construct: expressed in transfected cells
T3 sequence (P41587 24-438): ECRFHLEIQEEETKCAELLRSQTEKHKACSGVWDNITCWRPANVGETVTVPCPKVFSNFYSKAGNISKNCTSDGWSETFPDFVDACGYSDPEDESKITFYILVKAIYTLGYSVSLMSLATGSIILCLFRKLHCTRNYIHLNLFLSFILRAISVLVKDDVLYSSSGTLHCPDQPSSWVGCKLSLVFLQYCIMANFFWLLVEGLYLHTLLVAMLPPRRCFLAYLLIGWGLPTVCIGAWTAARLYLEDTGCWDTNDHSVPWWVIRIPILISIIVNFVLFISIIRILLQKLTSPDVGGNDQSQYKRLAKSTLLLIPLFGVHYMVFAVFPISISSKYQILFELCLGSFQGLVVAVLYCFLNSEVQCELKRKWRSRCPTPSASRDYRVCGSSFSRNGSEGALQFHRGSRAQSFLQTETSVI
Method: Alpha screen: Cells are washed in the culture flask once with PBS. Then, the cells are rinsed with enzyme free dissociation buffer. The dissociated cells are removed. The cells are then spun down and washed in stimulation buffer. For each data point, 50,000 cells suspended in stimulation buffer are used. To this buffer, Alpha screen acceptor beads are added along with the stimuli. This mixture is incubated for 60 minutes. Lysis buffer and Alpha screen donor beads are added and are incubated for 60 to 120 minutes. The Alpha screen signal (indicative of intracellular cAMP levels) is read in a suitable instrument (e.g. AlphaQuest from Perkin-Elmer). Steps including Alpha screen donor and acceptor beads are performed in reduced light. The EC50 for cAMP generation is calculated from the raw signal or is based on absolute cAMP levels as determined by a standard curve performed on each plate.
Results for each agonist are, at minimum, from two analyses performed in a single run. For some agonists, the results are the mean of more than one run. The tested peptide concentrations are: 10000, 1000, 100, 10, 3, 1, 0.1, 0.01, 0.003, 0.001, 0.0001 and 0.00001 nM.

rat VPAC1 receptor = target: T4, rat VPAC1 receptor (Rattus norvegicus, UniProt P30083); assay: DiscoveRx cAMP assay, in vitro potency at rat VPAC1 receptor; type: cell-based; conditions: CHO-PO cells transiently transfected with rat VPAC1; cAMP generation; mean of two independent runs
T4 construct: expressed in transfected cells; host or cells: CHO-PO (transient, Lipofectamine)
T4 sequence (P30083 31-459): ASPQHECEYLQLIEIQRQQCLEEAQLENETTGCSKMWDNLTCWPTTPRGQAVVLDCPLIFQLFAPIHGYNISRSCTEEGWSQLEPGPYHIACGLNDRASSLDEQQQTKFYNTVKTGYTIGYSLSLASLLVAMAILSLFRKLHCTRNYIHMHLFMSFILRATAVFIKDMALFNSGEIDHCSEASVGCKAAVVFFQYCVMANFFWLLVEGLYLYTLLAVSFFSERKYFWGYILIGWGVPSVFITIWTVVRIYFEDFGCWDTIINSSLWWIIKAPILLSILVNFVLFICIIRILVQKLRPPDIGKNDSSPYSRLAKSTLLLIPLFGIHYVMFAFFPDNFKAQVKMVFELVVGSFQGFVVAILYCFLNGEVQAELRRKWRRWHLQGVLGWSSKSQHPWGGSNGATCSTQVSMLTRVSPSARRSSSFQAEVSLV
Method: as §1, §2, §3

human VPAC2 [2] = target: T3, human VPAC2; assay: Filter binding assay, 125I-labeled VIP tracer, VPAC2 membranes; conditions: read-out: Human VPAC2 Receptor Binding (IC50; nM)
Method: (§4) For this assay, the solutions and equipment include:
(§5) Presoak solution: 0.5% Polyethyleneamine in Aqua dest
(§6) Buffer for flushing filter plates: 25 mM HEPES pH 7.4
(§7) Blocking buffer: 25 mM HEPES pH 7.4; 0.2% protease free BSA
(§8) Assay buffer: 25 mM HEPES pH 7.4; 0.5% protease free BSA
(§9) Dilution and assay plate: PS-Microplate, U form
(§10) Filtration Plate: Multiscreen FB Opaque Plate; 1.0 μM Type B Glasfiber filter
(§11) In order to prepare the filter plates, the presoak solution is aspirated by vacuum filtration. The plates are flushed twice with 200 μL flush buffer. 200 μL blocking buffer is added to the filter plate. The filter plate is then incubated with 200 μL presoak solution for 1 hour at room temperature.
(§12) The assay plate is filled with 25 μL assay buffer, 25 μL membranes (2.5 μg) suspended in assay buffer, 25 μL compound (agonist) in assay buffer, and 25 μL tracer (about 40000 cpm) in assay buffer. The filled plate is incubated for 1 hour with shaking.
(§13) The transfer from assay plate to filter plate is conducted. The blocking buffer is aspirated by vacuum filtration and washed two times with flush buffer. 90 μL is transferred from the assay plate to the filter plate. The 90 μL transferred from assay plate is aspirated and washed three times with 200 μL flush buffer. The plastic support is removed. It is dried for 1 hour at 60° C. 30 μL Microscint is added. The count is performed.

human VPAC1 = target: T5, human VPAC1 (Homo sapiens, UniProt P32241); assay: Filter binding assay, 125I-labeled VIP tracer, VPAC1 membranes; conditions: read-out: Human VPAC1 Receptor Binding (IC50; nM)
T5 construct: expressed in transfected cells
T5 sequence (P32241 31-457): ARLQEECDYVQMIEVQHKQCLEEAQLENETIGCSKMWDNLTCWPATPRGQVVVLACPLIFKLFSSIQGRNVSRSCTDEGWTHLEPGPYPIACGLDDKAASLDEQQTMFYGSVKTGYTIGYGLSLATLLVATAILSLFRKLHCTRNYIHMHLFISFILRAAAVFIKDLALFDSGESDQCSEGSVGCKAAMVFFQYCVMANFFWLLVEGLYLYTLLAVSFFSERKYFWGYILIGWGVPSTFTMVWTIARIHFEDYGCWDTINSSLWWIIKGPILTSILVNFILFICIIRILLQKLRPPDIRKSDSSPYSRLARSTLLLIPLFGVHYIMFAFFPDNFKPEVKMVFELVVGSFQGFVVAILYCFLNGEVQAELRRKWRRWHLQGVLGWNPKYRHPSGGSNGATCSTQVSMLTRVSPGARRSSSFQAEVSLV
Method: as §4, §5, §6, §7, §8, §9, §10, §11, §12, §13

[3] = Rat serum stability (activity remaining, CHO-VPAC2 DiscoveRx read-out); type: in vitro ADME
Summary of the method: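 Peptides preincubated overnight in rat serum at 37 °C without aprotinin versus 4 °C with aprotinin, then tested as 11-point 5× dilutions in duplicate on CHO-VPAC2 cells, 30 min at RT. cAMP measured by DiscoveRx kit against standards; EC50 derived for each aliquot.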

Structure (SMILES) | IC50 (human PAC1) | EC50 (rat VPAC2 receptor) | EC50 (human VPAC2 [1]) | EC50 (rat VPAC1 receptor) | IC50 (human VPAC2 [2]) | IC50 (human VPAC1) | Rat Serum Stability (estimated purity in % after overnight incub.) [3]
CCCCCC(=O)N[C@@H](Cc1c[nH]cn1)C(=O)N[C@@H](CO)C(=O)N[C@@H](CC(=O)O)C(=O)N[C@@H](C)C(=O)N[C@H](C(=O)N[C@@H](Cc1ccccc1)C(=O)N[C@H](C(=O)N[C@@H](CC(=O)O)C(=O)N[C@@H](CCC(N)=O)C(=O)N[C@@H](Cc1ccc(OC)cc1)C(=O)N[C@H](C(=O)N[C@@H](CCCN)C(=O)N[C@@H](CC(C)C)C(=O)N[C@@H](CCCNC(=N)N)C(=O)NC(C)(C)C(=O)N[C@@H](CCC(N)=O)C(=O)N[C@@H](CC(C)C)C(=O)N[C@@H](C)C(=O)N[C@@H](C)C(=O)NC(C)(C)C(=O)N[C@@H](CCCN)C(=O)N[C@@H](Cc1ccc(O)cc1)C(=O)N[C@@H](CC(C)C)C(=O)N[C@@H](CCC(N)=O)C(=O)N[C@@H](CO)C(=O)N[C@H](C(=O)N[C@@H](CCCN)C(=O)N[C@@H](CCCN)C(=O)NCC(=O)NCC(=O)N1CCC[C@H]1C(=O)N[C@@H](CO)C(=O)N[C@@H](CO)C(=O)NCC(=O)N[C@@H](C)C(=O)N1CCC[C@H]1C(=O)N1CCC[C@H]1C(=O)N1CCC[C@H]1C(=O)N[C@@H](CO)C(=O)O)[C@@H](C)CC)[C@@H](C)O)[C@@H](C)O)C(C)C [Agonist P394] (Hexanoyl-HSDAVFTDQY(Me)T[Orn]LR[Aib]QLAA[Aib][Orn]YLQSI[Orn][Orn]GGPSSGAPPPS-OH; C-terminus assumed) | > 25000 nM | 0.03 nM | 0.11 nM | 0.48 nM | – | – | –
CCCCCC(=O)N[C@@H](Cc1c[nH]cn1)C(=O)N[C@@H](CO)C(=O)N[C@@H](CC(=O)O)C(=O)N[C@@H](C)C(=O)N[C@H](C(=O)N[C@@H](Cc1ccccc1)C(=O)N[C@H](C(=O)N[C@@H](CC(=O)O)C(=O)N[C@@H](CC(N)=O)C(=O)N[C@@H](Cc1ccc(O)cc1)C(=O)N[C@H](C(=O)N[C@@H](CCCN)C(=O)N[C@@H](CC(C)C)C(=O)N[C@@H](CCCNC(=N)N)C(=O)NC(C)(C)C(=O)N[C@@H](CCC(N)=O)C(=O)N[C@H](C(=O)N[C@@H](CO)C(=O)N[C@@H](C)C(=O)NC(C)(C)C(=O)N[C@@H](CCCCN)C(=O)N[C@@H](Cc1ccc(O)cc1)C(=O)N[C@@H](CC(C)C)C(=O)N[C@@H](CCC(N)=O)C(=O)N[C@@H](CO)C(=O)N[C@H](C(=O)N[C@@H](CCCN)C(=O)N[C@@H](CC(N)=O)C(=O)N[C@@H](CCCN)C(=O)NCC(=O)NCC(=O)N1CCC[C@H]1C(=O)N[C@@H](CO)C(=O)N[C@@H](CO)C(=O)NCC(=O)N[C@@H](C)C(=O)N1CCC[C@H]1C(=O)N1CCC[C@H]1C(=O)N1CCC[C@H]1C(=O)N[C@@H](CO)C(=O)O)[C@@H](C)CC)C(C)C)[C@@H](C)O)[C@@H](C)O)C(C)C [Agonist P388] (Hexanoyl-HSDAVFTDNYT[Orn]LR[Aib]QVSA[Aib]KYLQSI[Orn]N[Orn]GGPSSGAPPPS-OH; C-terminus assumed) | > 25000 nM | – | – | > 2000 nM | ≥ 100 nM | > 3000 nM | –
CCCCCC(=O)N[C@@H](Cc1c[nH]cn1)C(=O)N[C@@H](CO)C(=O)N[C@@H](CC(=O)O)C(=O)N[C@@H](C)C(=O)N[C@H](C(=O)N[C@@H](Cc1ccccc1)C(=O)N[C@H](C(=O)N[C@@H](CC(=O)O)C(=O)N[C@@H](CC(N)=O)C(=O)N[C@@H](Cc1ccc(O)cc1)C(=O)N[C@H](C(=O)N[C@@H](CCCN)C(=O)N[C@@H](CC(C)C)C(=O)N[C@@H](CCCNC(=N)N)C(=O)NC(C)(C)C(=O)N[C@@H](CCC(N)=O)C(=O)N[C@H](C(=O)N[C@@H](C)C(=O)N[C@@H](C)C(=O)NC(C)(C)C(=O)N[C@@H](CCCCN)C(=O)N[C@@H](Cc1ccc(O)cc1)C(=O)N[C@@H](CO)C(=O)N[C@@H](CCC(N)=O)C(=O)N[C@@H](CO)C(=O)N[C@H](C(=O)N[C@@H](CCCN)C(=O)N[C@@H](CC(N)=O)C(=O)N[C@@H](CCCN)C(=O)NCC(=O)NCC(=O)N1CCC[C@H]1C(=O)N[C@@H](CO)C(=O)N[C@@H](CO)C(=O)NCC(=O)N[C@@H](C)C(=O)N1CCC[C@H]1C(=O)N1CCC[C@H]1C(=O)N1CCC[C@H]1C(=O)N[C@@H](CO)C(=O)O)[C@@H](C)CC)C(C)C)[C@@H](C)O)[C@@H](C)O)C(C)C [Agonist P384] (Hexanoyl-HSDAVFTDNYT[Orn]LR[Aib]QVAA[Aib]KYSQSI[Orn]N[Orn]GGPSSGAPPPS-OH; C-terminus assumed) | > 25000 nM | – | – | > 600 nM | – | > 3000 nM | 96.45%
